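Cells were grown in 96-well plates and exposed to each compound for 48 hours at five concentrations; endpoints were interpolated linearly between bracketing concentrations, or set to the highest concentration if not reached. GI50 is the concentration that inhibits growth by half.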 Active and inactive are the calls of the source. No stated cut-off is given here; in the data, active = GI50 up to about 1.1 µM and inactive = higher.
Legend:
Test in all cases: growth of human tumour cells (NCI), 48 h
OVCAR-5 = tested on: OVCAR-5
MDA-N = tested on: MDA-N
HCC 2998 = tested on: HCC 2998
U-251 = tested on: U-251
IGROV-1 = tested on: IGROV-1
OVCAR-4 = tested on: OVCAR-4
CAKI-1 = tested on: CAKI-1
DU-145 = tested on: DU-145
HT-29 = tested on: HT-29
SW-620 = tested on: SW-620
OVCAR-8 = tested on: OVCAR-8
UACC-62 = tested on: UACC-62
RPMI-8226 = tested on: RPMI-8226
UACC-257 = tested on: UACC-257
OVCAR-3 = tested on: OVCAR-3
NCI/ADR-RES = tested on: NCI/ADR-RES
TK-10 = tested on: TK-10
SNB-19 = tested on: SNB-19
SF-295 = tested on: SF-295
UO-31 = tested on: UO-31

| Compound | GI50 (OVCAR-5) | GI50 (MDA-N) | GI50 (HCC 2998) | GI50 (U-251) | GI50 (IGROV-1) | GI50 (OVCAR-4) | GI50 (CAKI-1) | GI50 (DU-145) | GI50 (HT-29) | GI50 (SW-620) | GI50 (OVCAR-8) | GI50 (UACC-62) | GI50 (RPMI-8226) | GI50 (UACC-257) | GI50 (OVCAR-3) | GI50 (NCI/ADR-RES) | GI50 (TK-10) | GI50 (SNB-19) | GI50 (SF-295) | GI50 (UO-31) |
| --- | --- | --- | --- | --- | --- | --- | --- | --- | --- | --- | --- | --- | --- | --- | --- | --- | --- | --- | --- | --- |
| Cc1nn(C(=O)c2ccc(Cl)cc2)c2c1C(c1ccc(Cl)cc1)SC(=N)N2 (stereo not given) | > 10 µM (inactive) | > 10 µM (inactive) | > 10 µM (inactive) | > 10 µM (inactive) | > 10 µM (inactive) | > 10 µM (inactive) | > 10 µM (inactive) | > 10 µM (inactive) | > 10 µM (inactive) | > 10 µM (inactive) | > 10 µM (inactive) | > 10 µM (inactive) | > 10 µM (inactive) | > 10 µM (inactive) | > 10 µM (inactive) | > 10 µM (inactive) | > 10 µM (inactive) | > 10 µM (inactive) | > 10 µM (inactive) |  |
| O=C(c1cc(Cl)cc(Cl)c1)N(Cc1cccnc1)C(=S)N(Cc1cccnc1)C(=O)c1cc(Cl)cc(Cl)c1 | 35.6 µM (inactive) | 31.3 µM (inactive) | 19.3 µM (inactive) | 22.2 µM (inactive) |  | 27.3 µM (inactive) | 41.3 µM (inactive) | 41.8 µM (inactive) | 31.9 µM (inactive) | 27.9 µM (inactive) | 28.8 µM (inactive) | 45.7 µM (inactive) | 4.37 µM (inactive) | 33 µM (inactive) | 21.7 µM (inactive) | 37.4 µM (inactive) | 31.3 µM (inactive) | 52.6 µM (inactive) | 55.5 µM (inactive) | 24.8 µM (inactive) |
| Cc1nc(C)c(N2CCN(S(=O)(=O)N(Cc3ccccc3)Cc3ccccc3)CC2)c(O)n1 | 29.2 µM (inactive) | > 100 µM (inactive) | > 100 µM (inactive) | 5.21 µM (inactive) | 16.8 µM (inactive) | 0.836 µM (active) |  | > 59.4 µM (inactive) | > 100 µM (inactive) | > 100 µM (inactive) | 4.78 µM (inactive) | 5.12 µM (inactive) | > 100 µM (inactive) | > 100 µM (inactive) | 52.8 µM (inactive) | > 61.4 µM (inactive) | 33.6 µM (inactive) | 8.91 µM (inactive) | 18.7 µM (inactive) | > 100 µM (inactive) |
| CCOC(=O)C1(C(=O)OCC)C=C(c2ccccc2)N(C2OC(COC(C)=O)C(OC(C)=O)C(OC(C)=O)C2OC(C)=O)C1=S (stereo not given) | > 100 µM (inactive) | > 100 µM (inactive) | > 100 µM (inactive) | > 100 µM (inactive) | > 100 µM (inactive) | 51.6 µM (inactive) | > 100 µM (inactive) | > 100 µM (inactive) | > 100 µM (inactive) | > 100 µM (inactive) | > 100 µM (inactive) | 57.7 µM (inactive) | 17 µM (inactive) | 90.4 µM (inactive) | > 100 µM (inactive) | 64.1 µM (inactive) |  | > 100 µM (inactive) | > 100 µM (inactive) | 61.5 µM (inactive) |
| O=C1c2ccccc2C(=O)c2c(NCC(O)CO)ccc(NCC(O)CO)c21 (stereo not given) | > 100 µM (inactive) | 61.2 µM (inactive) | 72.6 µM (inactive) | 61.2 µM (inactive) | 49.4 µM (inactive) | > 100 µM (inactive) | 56.6 µM (inactive) | 38.6 µM (inactive) | 56.6 µM (inactive) | 45.9 µM (inactive) | 69.2 µM (inactive) | 51.5 µM (inactive) | 65 µM (inactive) | > 100 µM (inactive) | 79.6 µM (inactive) | > 100 µM (inactive) | 72.4 µM (inactive) | 43.2 µM (inactive) |  | 17.8 µM (inactive) |
| CCOC(=O)C(Cc1ccc2c(c1)CCC2)(Cc1ccc2c(c1)CCC2)C(=O)OCC | > 100 µM (inactive) | 46 µM (inactive) | 49 µM (inactive) | > 100 µM (inactive) | > 100 µM (inactive) | > 100 µM (inactive) | > 100 µM (inactive) | > 100 µM (inactive) | 30.5 µM (inactive) | > 100 µM (inactive) | > 100 µM (inactive) |  | 55.7 µM (inactive) | 34.7 µM (inactive) | 26.1 µM (inactive) | > 100 µM (inactive) | > 100 µM (inactive) | > 100 µM (inactive) | 80.7 µM (inactive) | 71.9 µM (inactive) |
| CC1OC(OC2C(CO)OC(O[C@H]3CC[C@@]4(C)C(=CC[C@H]5[C@@H]6C[C@@H]7O[C@](O)(CC[C@@H](C)COC8OC(CO)C(O)C(O)C8O)[C@@H](C)[C@@H]7[C@@]6(C)CC[C@@H]54)C3)C(OC3OC(C)C(O)C(O)C3O)C2O)C(O)C(O)C1O (stereo not given in full) | 2.52 µM (inactive) | 2.89 µM (inactive) | 2.9 µM (inactive) | 1.87 µM (inactive) |  | 6.73 µM (inactive) | 2.47 µM (inactive) | 2.3 µM (inactive) | 1.98 µM (inactive) | 1.45 µM (inactive) | 2.19 µM (inactive) | 2.52 µM (inactive) | 2.34 µM (inactive) | 4.02 µM (inactive) | 12.9 µM (inactive) | 2.06 µM (inactive) | 8.45 µM (inactive) | 2.23 µM (inactive) | 3.91 µM (inactive) | 2.82 µM (inactive) |
| CNC(=S)c1nnsc1N | > 100 µM (inactive) | > 100 µM (inactive) | 29.5 µM (inactive) | > 100 µM (inactive) | 2.99 µM (inactive) | > 100 µM (inactive) | > 100 µM (inactive) | > 100 µM (inactive) |  | > 100 µM (inactive) | > 100 µM (inactive) | > 100 µM (inactive) | 0.9 µM (active) | > 100 µM (inactive) | 0.479 µM (active) | > 100 µM (inactive) | > 100 µM (inactive) |  | > 100 µM (inactive) | > 100 µM (inactive) |
| Cc1nc(C)c(N2CCNCC2)c(O)n1 |  | > 100 µM (inactive) | > 100 µM (inactive) | > 100 µM (inactive) | > 100 µM (inactive) | > 100 µM (inactive) | > 100 µM (inactive) | > 100 µM (inactive) | > 100 µM (inactive) | > 100 µM (inactive) | > 100 µM (inactive) | > 100 µM (inactive) | > 100 µM (inactive) | > 100 µM (inactive) | > 100 µM (inactive) | > 100 µM (inactive) | > 100 µM (inactive) | > 100 µM (inactive) | > 100 µM (inactive) | > 100 µM (inactive) |
| O=C(O)c1c2c(cc3c1CC1(Cc4cc5c(cc4C1=O)CCC5)C3)CCC2 (stereo not given) | > 100 µM (inactive) | > 100 µM (inactive) | 51.9 µM (inactive) | 85.9 µM (inactive) | > 100 µM (inactive) | 52.2 µM (inactive) |  | 98.2 µM (inactive) | > 100 µM (inactive) | > 100 µM (inactive) | > 100 µM (inactive) | > 100 µM (inactive) | > 100 µM (inactive) | 56.6 µM (inactive) | 56.4 µM (inactive) | > 100 µM (inactive) | > 100 µM (inactive) | > 100 µM (inactive) | > 100 µM (inactive) | > 100 µM (inactive) |
| Cc1cc(C)nc(NS(=O)(=O)c2ccc(NC(=O)c3cccc4c(NNc5ccc(S(=O)(=O)N=C(N)N)cc5)c5ccccc5nc34)cc2)n1 |  | > 50 µM (inactive) | > 50 µM (inactive) | > 50 µM (inactive) | > 50 µM (inactive) | > 50 µM (inactive) | > 50 µM (inactive) | > 50 µM (inactive) | > 50 µM (inactive) | > 50 µM (inactive) | > 50 µM (inactive) | > 50 µM (inactive) | > 50 µM (inactive) | > 50 µM (inactive) | > 50 µM (inactive) | > 50 µM (inactive) | > 50 µM (inactive) | > 50 µM (inactive) | > 50 µM (inactive) | 48.1 µM (inactive) |
| CC(=O)CC(C)(C)NC(=O)[C@@]1(O)CC[C@H]2[C@@H]3CCC4=CC(=O)CC[C@@H]4[C@H]3CC[C@@]21C | > 100 µM (inactive) | > 100 µM (inactive) | > 100 µM (inactive) | > 100 µM (inactive) | > 100 µM (inactive) | > 100 µM (inactive) |  | > 100 µM (inactive) | > 100 µM (inactive) | > 100 µM (inactive) | > 100 µM (inactive) | > 100 µM (inactive) | > 100 µM (inactive) | > 100 µM (inactive) | > 100 µM (inactive) | > 100 µM (inactive) | > 100 µM (inactive) | > 100 µM (inactive) | > 100 µM (inactive) | > 100 µM (inactive) |
| Nc1nc(Cl)cc(NCC2CC(O)(CO)C2)n1 (stereo not given) | > 100 µM (inactive) | > 100 µM (inactive) | > 100 µM (inactive) | > 100 µM (inactive) | > 100 µM (inactive) | > 100 µM (inactive) | > 100 µM (inactive) | > 100 µM (inactive) | > 100 µM (inactive) | > 100 µM (inactive) | > 100 µM (inactive) | > 100 µM (inactive) | > 100 µM (inactive) | > 100 µM (inactive) | > 100 µM (inactive) | > 100 µM (inactive) | > 100 µM (inactive) |  | > 100 µM (inactive) | > 100 µM (inactive) |
| c1ccc(C2=NOC(c3ccccc3)N2C23CC4CC(CC(C4)C2)C3)cc1 (stereo not given) | > 10 µM (inactive) | > 10 µM (inactive) | > 10 µM (inactive) | > 10 µM (inactive) | > 10 µM (inactive) | > 10 µM (inactive) | > 10 µM (inactive) | > 10 µM (inactive) | > 10 µM (inactive) | > 10 µM (inactive) | > 10 µM (inactive) | > 10 µM (inactive) | > 10 µM (inactive) | 9.73 µM (inactive) | > 10 µM (inactive) | > 10 µM (inactive) | > 10 µM (inactive) | > 10 µM (inactive) | > 10 µM (inactive) |  |

— ChEMBL document CHEMBL1201862, “PubChem BioAssay data set” (2004)
